# In patent US8648208B2, “Activating agent for peroxisome proliferator activated receptor” (Nippon Chemiphar Co. Ltd., priority 2008, dated 2014):
# Read-outs that look alike come from different tables or passages of the source.
# What was measured:
# Assay type in all cases: cell-based
# hPPARα (LBD) = biological target: T1, hPPARα (LBD) (Homo sapiens, UniProt Q07869); assay: PPAR activating effect, GAL4-hPPARα LBD luciferase reporter transfection in CV-1 cells; settings: 100% = GW-590735 10^-6 M
# T1 construct: A receptor expression plasmid (pSG5-GAL4-hPPARα or γ or δ (LBD)); GAL4 (fusion partner); expressed in transfected cells; host or cells: CV-1 cells (ATCC)
# T1 sequence (Q07869 239-466 limits assumed): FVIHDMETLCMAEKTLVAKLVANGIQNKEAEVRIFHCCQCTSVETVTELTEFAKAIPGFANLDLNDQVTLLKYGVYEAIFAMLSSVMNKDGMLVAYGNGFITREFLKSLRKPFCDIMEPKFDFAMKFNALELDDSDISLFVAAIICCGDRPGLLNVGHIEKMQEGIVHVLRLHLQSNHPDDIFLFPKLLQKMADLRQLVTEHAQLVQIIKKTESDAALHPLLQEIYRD
# hPPARγ (LBD) = biological target: T2, hPPARγ (LBD) (Homo sapiens, UniProt P37231); assay: PPAR activating effect, GAL4-hPPARγ LBD luciferase reporter transfection in CV-1 cells
# T2 construct: A receptor expression plasmid (pSG5-GAL4-hPPARα or γ or δ (LBD)); GAL4 (fusion partner); expressed in transfected cells; host or cells: CV-1 cells (ATCC)
# T2 sequence (P37231 238-503 limits assumed): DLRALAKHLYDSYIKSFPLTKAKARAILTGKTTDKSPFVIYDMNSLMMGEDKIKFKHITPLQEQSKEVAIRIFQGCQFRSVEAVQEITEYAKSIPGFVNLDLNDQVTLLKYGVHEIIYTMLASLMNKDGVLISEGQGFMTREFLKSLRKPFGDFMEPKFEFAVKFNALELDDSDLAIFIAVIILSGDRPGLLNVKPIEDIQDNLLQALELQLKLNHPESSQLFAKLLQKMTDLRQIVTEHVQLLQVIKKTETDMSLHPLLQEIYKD
# hPPARδ (LBD) = biological target: T3, hPPARδ (LBD) (Homo sapiens, UniProt Q03181); assay: PPAR activating effect, GAL4-hPPARδ LBD luciferase reporter transfection in CV-1 cells; design: activation: dose or concentration left out as unconfirmed; settings: for activation: CV-1, 40 h, read-out: PPAR activity δ (relative value to control compound)
# T3 construct: A receptor expression plasmid (pSG5-GAL4-hPPARα or γ or δ (LBD)); GAL4 (fusion partner); expressed in transfected cells; host or cells: CV-1 cells (ATCC)
# T3 sequence (Q03181 211-439 limits assumed): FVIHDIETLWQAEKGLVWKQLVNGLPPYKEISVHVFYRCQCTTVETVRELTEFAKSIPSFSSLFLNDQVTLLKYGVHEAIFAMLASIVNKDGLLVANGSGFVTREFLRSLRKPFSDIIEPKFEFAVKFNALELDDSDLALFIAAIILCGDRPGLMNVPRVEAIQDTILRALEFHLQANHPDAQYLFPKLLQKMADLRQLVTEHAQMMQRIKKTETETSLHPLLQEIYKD
# [1] = Table 26, test compound 10^-7 M
# [2] = Table 24, CV-1 cells, approx. 40 h
# [3] = Table 24, 100% = Rosiglitazone 10^-5 M, CV-1 cells, approx. 40 h
Molecule,"PPAR activity γ (relative value to control compound) (hPPARγ (LBD); Table 26, test compound 10^-7 M, 100% = Rosiglitazone 10^-5 M)",activation (hPPARδ (LBD)) [%],PPAR activity α (relative value to control compound) (hPPARα (LBD); [2]),PPAR activity γ (relative value to control compound) (hPPARγ (LBD); [3]),PPAR activity α (relative value to control compound) (hPPARα (LBD); [1]),"PPAR activity δ (relative value to control compound) (hPPARδ (LBD); Table 24, 100% = GW-501516 10^-7 M, CV-1 cells, approx. 40 h) [%]",PPAR activity γ (relative value to control compound) (hPPARγ (LBD))
2-[3-[2-[3-Isopropyl-6-(trifluoromethyl)benzothiophen-2-yl]ethyl]benzisoxazol-6-yloxy]propionic acid [Example 27],Inactive,–,–,–,Inactive,–,–
"Cc1cc(C(=O)CCc2sc3ccc(C(F)(F)F)cc3c2C)ccc1OCC(=O)O [Example 3, 2-Methyl-4-[3-[3-methyl-5-(trifluoromethyl)-benzothiophen-2-yl]propionyl]phenoxyacetic acid]",–,4.4,Inactive,Inactive,–,–,–
"Cc1cc(C(=O)CCc2sc3ccc(C(F)(F)F)cc3c2C)ccc1OC(C)(C)C(=O)O [Example 4, 2-Methyl-2-[2-methyl-4-[3-[3-methyl-5-(trifluoromethyl)-benzothiophen-2-yl]propionyl]phenoxy]propionic acid]",–,19.2,–,9.0%,–,–,–
"Cc1cc(C(=O)CCc2sc3cc(C(F)(F)F)ccc3c2C)ccc1OCC(=O)O [Example 5, 2-Methyl-4-[3-[3-methyl-6-(trifluoromethyl)-benzothiophen-2-yl]propionyl]phenoxyacetic acid]",–,23,Inactive,Inactive,–,–,–
Cc1cc(C(=O)CCc2sc3cc(C(F)(F)F)ccc3c2C)ccc1OC(C)(C)C(=O)O [Example 6],–,–,Inactive,–,–,40.8,Inactive
"Cc1cc(C(=O)CCc2sc3cc(C(F)(F)F)ccc3c2C)ccc1CCC(=O)O [Example 7, 3-[4-[3-[3-Methyl-6-(trifluoromethyl)-benzothiophen-2-yl]propionyl]-2-methylphenyl]propionic acid]",–,51.4,Inactive,Inactive,–,–,–
CCCc1c(CCC(=O)c2cc(C)c(OCC(=O)O)cc2O)sc2cc(C(F)(F)F)ccc12 [Example 22],–,–,–,–,Inactive,–,Inactive

# Further lines, with some results ahead:
"PPAR activity γ (relative value to control compound) (hPPARγ (LBD); Table 26, test compound 10^-7 M, 100% = Rosiglitazone 10^-5 M)",activation (hPPARδ (LBD)) [%],PPAR activity α (relative value to control compound) (hPPARα (LBD); [2]),PPAR activity γ (relative value to control compound) (hPPARγ (LBD); [3]),Molecule,PPAR activity α (relative value to control compound) (hPPARα (LBD); [1]),"PPAR activity δ (relative value to control compound) (hPPARδ (LBD); Table 24, 100% = GW-501516 10^-7 M, CV-1 cells, approx. 40 h) [%]",PPAR activity γ (relative value to control compound) (hPPARγ (LBD))
–,81,Inactive,Inactive,"CCc1c(CCC(=O)c2ccc(CCC(=O)O)c(C)c2)sc2cc(C(F)(F)F)ccc12 [Example 8, 3-[4-[3-[3-Ethyl-6-(trifluoromethyl)benzothiophen-2-yl]propionyl]-2-methylphenyl]propionic acid]",–,–,–
–,83.5,Inactive,1.3%,"CCCc1c(CCC(=O)c2ccc(CCC(=O)O)c(C)c2)sc2cc(C(F)(F)F)ccc12 [Example 9, 3-[2-Methyl-4-[3-[3-propyl-6-(trifluoromethyl)benzothiophen-2-yl]propionyl]phenyl]propionic acid]",–,–,–
–,66.1,Inactive,2.2%,"CCCCc1c(CCC(=O)c2ccc(CCC(=O)O)c(C)c2)sc2cc(C(F)(F)F)ccc12 [Example 10, 3-[2-Methyl-4-[3-[3-butyl-6-(trifluoromethyl)benzothiophen-2-yl]propionyl]phenyl]propionic acid]",–,–,–
–,60.9,Inactive,Inactive,"Cc1cc(C(=O)CCc2sc3cc(C(F)(F)F)ccc3c2CC(C)C)ccc1CCC(=O)O [Example 11, 3-[2-Methyl-4-[3-[3-isobutyl-6-(trifluoromethyl)benzothiophen-2-yl]propionyl]phenyl]propionic acid]",–,–,–
–,88,–,Inactive,"Cc1cc2c(CCc3sc4cc(C(F)(F)F)ccc4c3C(C)C)noc2cc1N(C)CC(=O)O [Example 20, N-[3-[2-[3-Isopropyl-6-(trifluoromethyl)benzothiophen-2-yl]ethyl]-5-methylbenzisoxazol-6-yl]-N-methylglycine]",–,–,–
